Activity calls are given as the source filed them.
Experiments:
[1] = molecular target: T1, Serine/threonine-protein kinase A-Raf (Homo sapiens, UniProt P10398)
T1 sequence (P10398 whole entry): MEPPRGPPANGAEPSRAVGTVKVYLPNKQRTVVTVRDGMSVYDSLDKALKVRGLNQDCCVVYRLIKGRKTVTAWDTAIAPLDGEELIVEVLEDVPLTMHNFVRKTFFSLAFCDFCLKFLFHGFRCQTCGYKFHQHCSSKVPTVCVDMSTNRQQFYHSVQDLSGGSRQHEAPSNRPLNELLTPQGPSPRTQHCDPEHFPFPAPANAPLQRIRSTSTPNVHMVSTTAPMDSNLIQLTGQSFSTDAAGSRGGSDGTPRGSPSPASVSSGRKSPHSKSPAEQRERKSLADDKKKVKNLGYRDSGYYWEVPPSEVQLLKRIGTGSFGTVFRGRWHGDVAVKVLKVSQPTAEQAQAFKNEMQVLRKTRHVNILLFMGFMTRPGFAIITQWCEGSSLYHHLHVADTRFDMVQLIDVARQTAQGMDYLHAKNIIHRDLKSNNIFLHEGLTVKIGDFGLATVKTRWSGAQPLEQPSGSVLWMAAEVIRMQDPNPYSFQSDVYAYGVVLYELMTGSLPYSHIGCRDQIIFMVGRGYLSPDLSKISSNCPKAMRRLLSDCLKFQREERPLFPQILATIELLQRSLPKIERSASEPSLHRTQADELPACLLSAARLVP

[2] = molecular target: Cyclin-dependent kinase 5 (Homo sapiens, UniProt Q00535)
[3] = molecular target: T2, Phosphatidylinositol 5-phosphate 4-kinase type-2 gamma (Homo sapiens, UniProt Q8TBX8)
T2 sequence (Q8TBX8 whole entry): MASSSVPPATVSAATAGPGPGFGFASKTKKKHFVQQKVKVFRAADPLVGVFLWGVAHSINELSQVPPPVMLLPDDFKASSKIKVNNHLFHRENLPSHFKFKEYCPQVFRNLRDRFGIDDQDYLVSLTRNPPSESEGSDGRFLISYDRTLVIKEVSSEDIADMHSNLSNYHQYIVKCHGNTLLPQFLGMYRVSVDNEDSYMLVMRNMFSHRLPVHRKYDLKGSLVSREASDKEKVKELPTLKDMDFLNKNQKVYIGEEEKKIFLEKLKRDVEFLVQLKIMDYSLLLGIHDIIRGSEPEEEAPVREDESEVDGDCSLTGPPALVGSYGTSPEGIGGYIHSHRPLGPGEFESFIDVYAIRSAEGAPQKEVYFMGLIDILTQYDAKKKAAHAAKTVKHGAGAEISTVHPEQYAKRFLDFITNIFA

Ephrin type-B receptor 3 = molecular target: T3, Ephrin type-B receptor 3 (Homo sapiens, UniProt P54753)
T3 sequence (P54753 whole entry): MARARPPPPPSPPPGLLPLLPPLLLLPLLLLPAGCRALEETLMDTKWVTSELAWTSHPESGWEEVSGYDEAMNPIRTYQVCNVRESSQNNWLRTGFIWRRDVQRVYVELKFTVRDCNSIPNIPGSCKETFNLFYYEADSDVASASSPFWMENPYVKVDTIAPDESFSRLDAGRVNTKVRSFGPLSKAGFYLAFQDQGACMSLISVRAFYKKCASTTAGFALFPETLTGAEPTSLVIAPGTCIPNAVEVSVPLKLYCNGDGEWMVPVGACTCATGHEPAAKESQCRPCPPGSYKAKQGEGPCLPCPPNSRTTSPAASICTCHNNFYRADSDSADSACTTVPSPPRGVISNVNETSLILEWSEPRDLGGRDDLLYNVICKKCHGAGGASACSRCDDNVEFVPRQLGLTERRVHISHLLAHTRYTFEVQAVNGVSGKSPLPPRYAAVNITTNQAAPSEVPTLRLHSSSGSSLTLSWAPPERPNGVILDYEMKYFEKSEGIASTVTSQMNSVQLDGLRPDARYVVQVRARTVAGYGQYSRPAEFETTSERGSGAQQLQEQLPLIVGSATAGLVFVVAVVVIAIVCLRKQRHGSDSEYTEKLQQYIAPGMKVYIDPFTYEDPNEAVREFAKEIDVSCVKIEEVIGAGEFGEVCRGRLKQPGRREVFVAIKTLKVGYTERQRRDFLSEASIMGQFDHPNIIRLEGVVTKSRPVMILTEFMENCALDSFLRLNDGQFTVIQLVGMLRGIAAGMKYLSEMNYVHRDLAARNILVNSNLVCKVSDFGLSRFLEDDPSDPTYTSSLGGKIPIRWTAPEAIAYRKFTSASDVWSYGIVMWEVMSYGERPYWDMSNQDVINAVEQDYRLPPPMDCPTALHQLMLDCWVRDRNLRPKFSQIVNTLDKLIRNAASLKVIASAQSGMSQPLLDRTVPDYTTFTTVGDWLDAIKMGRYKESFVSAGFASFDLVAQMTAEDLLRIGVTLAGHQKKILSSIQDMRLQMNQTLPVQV

[4] = molecular target: T4, Probable ATP-dependent RNA helicase DDX6 (Homo sapiens, UniProt P26196)
T4 sequence (P26196 whole entry): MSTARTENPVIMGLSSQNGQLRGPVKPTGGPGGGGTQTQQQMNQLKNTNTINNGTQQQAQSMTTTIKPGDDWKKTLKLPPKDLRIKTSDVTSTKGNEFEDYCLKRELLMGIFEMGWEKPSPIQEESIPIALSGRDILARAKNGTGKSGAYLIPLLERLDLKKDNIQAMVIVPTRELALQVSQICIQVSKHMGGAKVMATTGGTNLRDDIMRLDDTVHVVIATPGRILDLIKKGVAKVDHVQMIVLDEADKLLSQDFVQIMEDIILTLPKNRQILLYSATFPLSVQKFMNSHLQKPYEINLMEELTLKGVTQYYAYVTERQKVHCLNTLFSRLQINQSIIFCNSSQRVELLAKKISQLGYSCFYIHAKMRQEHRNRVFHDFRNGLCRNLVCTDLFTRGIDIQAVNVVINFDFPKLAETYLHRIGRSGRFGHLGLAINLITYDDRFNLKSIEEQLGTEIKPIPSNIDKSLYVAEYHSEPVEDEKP
Further: in the data inactive means no Kd found up to 30 µM.

Cyclin-dependent kinase 5, sequence (Q00535 whole entry): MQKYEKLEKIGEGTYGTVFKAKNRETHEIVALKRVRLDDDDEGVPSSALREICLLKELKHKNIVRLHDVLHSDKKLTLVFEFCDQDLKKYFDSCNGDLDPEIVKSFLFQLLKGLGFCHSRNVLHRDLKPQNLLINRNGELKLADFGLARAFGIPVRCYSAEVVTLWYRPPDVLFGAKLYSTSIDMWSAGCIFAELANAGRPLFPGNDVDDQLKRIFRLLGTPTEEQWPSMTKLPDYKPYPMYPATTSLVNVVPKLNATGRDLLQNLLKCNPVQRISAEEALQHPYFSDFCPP

| Structure (SMILES) | Kd [1] | Kd [2] | Kd [3] | Kd (Ephrin type-B receptor 3) | Kd [4] |
| --- | --- | --- | --- | --- | --- |
| CNC(=O)c1cc(Oc2ccc(NC(=O)Nc3cc(C(C)(C)C)nn3-c3ccc4ncccc4c3)c(F)c2)ccn1 [REBASTINIB] | 33.7 µM (active) | 1.5 µM (active) | > 30 µM (inactive) | > 30 µM (inactive) | > 30 µM (inactive) |
| CO[C@H]1C[C@@H]2CC[C@@H](C)[C@@](O)(O2)C(=O)C(=O)N2CCCC[C@H]2C(=O)O[C@H]([C@H](C)C[C@@H]2CC[C@@H](OP(C)(C)=O)[C@H](OC)C2)CC(=O)[C@H](C)/C=C(\C)[C@@H](O)[C@@H](OC)C(=O)[C@H](C)C[C@H](C)/C=C/C=C/C=C/1C [RIDAFOROLIMUS] | > 30 µM (inactive) | > 30 µM (inactive) | > 30 µM (inactive) | > 30 µM (inactive) | > 30 µM (inactive) |
| CN1CCN(CCOc2cc(OC3CCOCC3)c3c(Nc4c(Cl)ccc5c4OCO5)ncnc3c2)CC1 [SARACATINIB] | > 30 µM (inactive) | > 30 µM (inactive) | > 30 µM (inactive) | > 30 µM (inactive) | > 30 µM (inactive) |
| Cn1cc(-c2cnn3c(N)c(Br)c([C@@H]4CCCNC4)nc23)cn1 [SCH-900776] | > 30 µM (inactive) | > 30 µM (inactive) | > 30 µM (inactive) | > 30 µM (inactive) | > 30 µM (inactive) |
| CO[C@H]1C[C@@H]2CC[C@@H](C)[C@@](O)(O2)C(=O)C(=O)N2CCCC[C@H]2C(=O)O[C@H]([C@H](C)C[C@@H]2CC[C@@H](O)[C@H](OC)C2)CC(=O)[C@H](C)/C=C(\C)[C@@H](O)[C@@H](OC)C(=O)[C@H](C)C[C@H](C)/C=C/C=C/C=C/1C [SIROLIMUS] | > 30 µM (inactive) | > 30 µM (inactive) | > 30 µM (inactive) | > 30 µM (inactive) | > 30 µM (inactive) |
| CO[C@H]1C[C@@H]2CC[C@@H](C)[C@@](O)(O2)C(=O)C(=O)N2CCCC[C@H]2C(=O)O[C@H]([C@H](C)C[C@@H]2CC[C@@H](OC(=O)C(C)(CO)CO)[C@H](OC)C2)CC(=O)[C@H](C)/C=C(\C)[C@@H](O)[C@@H](OC)C(=O)[C@H](C)C[C@H](C)/C=C/C=C/C=C/1C [TEMSIROLIMUS] | > 30 µM (inactive) | > 30 µM (inactive) | > 30 µM (inactive) | > 30 µM (inactive) | > 30 µM (inactive) |
| COc1cc2c(Nc3ccc(Cl)c(Cl)c3F)ncnc2cc1OC[C@@H]1C[C@@H]2CN(C)C[C@@H]2C1 [TESEVATINIB] | > 30 µM (inactive) | > 30 µM (inactive) | > 30 µM (inactive) | > 30 µM (inactive) | > 30 µM (inactive) |
| Cc1cc(Nc2ncnc3ccc(NC4=NC(C)(C)CO4)cc23)ccc1Oc1ccn2ncnc2c1 [TUCATINIB] | > 30 µM (inactive) | > 30 µM (inactive) | > 30 µM (inactive) | > 30 µM (inactive) | > 30 µM (inactive) |
| Cn1ncc(Cl)c1-c1cc(C(=O)N[C@H](CN)Cc2ccc(F)c(F)c2)oc1Cl [UPROSERTIB] | > 30 µM (inactive) | > 30 µM (inactive) | > 30 µM (inactive) | > 30 µM (inactive) | > 30 µM (inactive) |
| CC(C)c1cc(CNc2nc(Nc3cc(C4CC4)[nH]n3)cc(N3CCN(C)CC3)n2)on1 [XL-228] | > 30 µM (inactive) | > 30 µM (inactive) | > 30 µM (inactive) | > 30 µM (inactive) | > 30 µM (inactive) |

Now from value to molecule:

| Kd [1] | Kd [2] | Kd [3] | Kd (Ephrin type-B receptor 3) | Kd [4] | Structure (SMILES) |
| --- | --- | --- | --- | --- | --- |
| > 30 µM (inactive) | > 30 µM (inactive) | > 30 µM (inactive) | > 30 µM (inactive) | > 30 µM (inactive) | N#CC1(c2ccc(NC(=O)c3cccnc3NCc3ccncc3)cc2)CCCC1 [RIVOCERANIB] |
| > 30 µM (inactive) | > 30 µM (inactive) | > 30 µM (inactive) | > 30 µM (inactive) | > 30 µM (inactive) | O=c1[nH]ccc2cc(OC3CCNCC3)ccc12 [SAR-407899 FREE BASE] |
| > 30 µM (inactive) | > 30 µM (inactive) | > 30 µM (inactive) | > 30 µM (inactive) | > 30 µM (inactive) | O=C(Cc1ccc(-c2ccc(OCCN3CCOCC3)cc2)cn1)NCc1ccccc1 [TIRBANIBULIN] |
| > 30 µM (inactive) | > 30 µM (inactive) | > 30 µM (inactive) | > 30 µM (inactive) | > 30 µM (inactive) | O=C1NC(=O)[C@@H](c2cn3c4c(cccc24)CCC3)[C@@H]1c1c[nH]c2ccccc12 [TIVANTINIB] |
| > 30 µM (inactive) | > 30 µM (inactive) | > 30 µM (inactive) | > 30 µM (inactive) | > 30 µM (inactive) | C[C@@H](N)c1ccc(C(=O)Nc2ccnc3[nH]ccc23)cc1 [Y-39983] |
| > 30 µM (inactive) | 0.93 µM (active) | > 30 µM (inactive) | > 30 µM (inactive) | > 30 µM (inactive) | CN1C/C=C/CCOc2cccc(c2)-c2ccnc(n2)Nc2cccc(c2)C1 [ZOTIRACICLIB] |

— ChEMBL document CHEMBL3991601, “The target landscape of clinical kinase drugs” (Science, 2017)
